# Laboratory results as given in ChEMBL document CHEMBL3351707, “Discovery and SAR of muscarinic receptor subtype 1 (M1) allosteric activators from a molecular libraries high throughput screen. Part 1: 2,5-dibenzyl-2H-pyrazolo[4,3-c]quinolin-3(5H)-ones as positive allosteric modulators” (Bioorg Med Chem Lett, 2015).
# Active and inactive are the calls of the source. The calls are words filed in the database; no cut-off is given here.
# How the values were obtained:
# Format in all cases: functional, cell-based
# [1] = target: T1, Muscarinic acetylcholine receptor M1 (Homo sapiens, UniProt P11229); assay: (§1) Positive allosteric modulator activity at human muscarinic receptor subtype 1 expressed in CHO-K1 cells by calcium mobilization assay
# T1 sequence (P11229 whole entry): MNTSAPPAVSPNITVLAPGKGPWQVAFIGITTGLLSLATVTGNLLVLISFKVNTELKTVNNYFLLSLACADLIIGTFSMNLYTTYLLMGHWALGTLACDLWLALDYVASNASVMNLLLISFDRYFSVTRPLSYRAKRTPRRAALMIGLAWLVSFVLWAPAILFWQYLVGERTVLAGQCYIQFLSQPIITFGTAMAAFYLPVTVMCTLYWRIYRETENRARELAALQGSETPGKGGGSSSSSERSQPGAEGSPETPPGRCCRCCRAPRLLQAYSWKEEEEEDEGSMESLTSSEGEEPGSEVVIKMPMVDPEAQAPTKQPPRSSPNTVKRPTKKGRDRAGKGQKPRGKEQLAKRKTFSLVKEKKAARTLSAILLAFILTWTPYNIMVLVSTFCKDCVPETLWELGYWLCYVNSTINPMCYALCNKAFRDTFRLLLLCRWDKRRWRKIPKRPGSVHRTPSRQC
# [2] = target: T2, Muscarinic acetylcholine receptor M1 (Homo sapiens) (UniProt P11229); assay: Positive allosteric modulator activity at human muscarinic receptor subtype 1 expressed in CHO-K1 cells at 30 uM by calcium mobilization assay relative to acetylcholine
# T2 sequence (whole entry): T1 sequence (P11229 whole entry)
# [3] = target: T2, Muscarinic acetylcholine receptor M1 (Homo sapiens); assay: Positive allosteric modulator activity at human muscarinic receptor subtype 1 expressed in CHO-K1 cells by calcium mobilization assay relative to acetylcholine
# [4] = target: T2, Muscarinic acetylcholine receptor M1 (Homo sapiens); assay: as §1
SMILES,EC50 ([1]; read-out: EC50) [nM],Emax [2] [%],Emax [3],pEC50 [4],EC50 ([1]; cho-k1)
Cc1cc(NC(=O)CS(=O)(=O)c2cn(Cc3ccc(-c4cnn(C)c4)nc3)c3cc(F)cc(F)c23)no1,845,,,,
Cn1nc2c3ccccc3n(Cc3ccccc3)cc-2c1=O,> 10000,48,,,
Cc1ccc(Cn2nc3c4ccccc4n(Cc4ccccn4)cc-3c2=O)c(C)c1,3790,,83%,,
Cc1ccc(Cn2nc3c4ccccc4n(C)cc-3c2=O)c(C)c1,,,inactive,inactive,Not Active
O=c1c2cn(Cc3ccccc3)c3ccccc3c-2nn1Cc1ccc(F)cc1,,,,inactive,Not Active
O=C1C(=O)N(Cc2ccccc2)c2ccccc21,,,34%,,
Cc1ccc(C)c(CN2C(=O)C(=O)c3ccccc32)c1,,,,,Not Active
Cc1ccc(C)c(Cn2nc3c4ccccc4n(Cc4ccccc4)cc-3c2=O)c1,473,,40%,,
O=c1c2c[nH]c3ccccc3c-2nn1[C@@H]1CCCC[C@H]1O,,,,inactive,Not Active
O=c1c2cn(Cc3ccccc3)c3ccccc3c-2nn1Cc1ccncc1,> 10000,54,,,
Cc1cccc(Cn2nc3c4ccccc4n(Cc4ccccc4)cc-3c2=O)c1,,,,inactive,Not Active
O=C1C(=O)N(Cc2ccc(-n3cccn3)cc2)c2ccccc21,,,61%,,
Cc1ccc(Cn2nc3c4ccccc4n(Cc4cccc(F)c4)cc-3c2=O)c(C)c1,1420,,31%,,
Cc1ccc(Cn2nc3c4ccccc4n(Cc4ccc(-n5cccn5)cc4)cc-3c2=O)c(C)c1,1150,,80%,,
O=c1c2cn(Cc3ccccc3)c3ccccc3c-2nn1Cc1ccccc1F,1010,,36%,,
O=c1c2c[nH]c3ccccc3c-2nn1Cc1ccc(-n2cccn2)cc1,,,,inactive,Not Active
O=c1c2cn(Cc3ccccc3)c3ccccc3c-2nn1Cc1ccccc1,,,,inactive,Not Active
Cc1cccc(Cn2cc3c(=O)n(Cc4ccc(C)cc4C)nc-3c3ccccc32)c1,,,inactive,inactive,Not Active
Cc1ccc(Cn2nc3c4ccccc4n(Cc4ccc(F)cc4)cc-3c2=O)c(C)c1,2020,,47%,,

SMILES,EC50 ([1]; read-out: EC50) [nM],Emax [2] [%],Emax [3],pEC50 [4],EC50 ([1]; cho-k1)
Cc1ccc(C)c(Cn2nc3c4ccccc4[nH]cc-3c2=O)c1,> 30000,,,,
O=c1c2cn(Cc3ccccc3)c3ccccc3c-2nn1Cc1cccnc1,6310,,65%,,
Cn1cc(-c2ccc(Cn3nc4c5ccccc5[nH]cc-4c3=O)cc2)cn1,,,,inactive,Not Active
Cc1ccc(Cn2nc3c4ccccc4n(Cc4ccccc4F)cc-3c2=O)c(C)c1,656,,46%,,
Cc1ccc(Cn2nc3c4ccccc4n(Cc4ccccc4)cc-3c2=O)cc1,,,,inactive,Not Active
O=c1c2cn(Cc3ccccc3)c3ccccc3c-2nn1Cc1cccc(F)c1,,,,inactive,Not Active
Cn1nc2c3ccccc3n(Cc3ccc(-n4cccn4)cc3)cc-2c1=O,2430,,88%,,
Cc1ccc(Cn2nc3c4ccccc4n(Cc4ccc(-c5cnn(C)c5)cc4F)cc-3c2=O)c(C)c1,1940,,74%,,
COc1ccc(Cn2cc3c(=O)n(Cc4ccc(C)cc4C)nc-3c3ccccc32)cc1,821,,39%,,
Cc1ccc(Cn2cc3c(=O)n(Cc4ccc(C)cc4C)nc-3c3ccccc32)cc1,,,inactive,inactive,Not Active
Cn1cc(-c2ccc(Cn3cc4c(=O)[nH]nc-4c4ccccc43)c(F)c2)cn1,600,,89%,,
Cc1ccccc1Cn1nc2c3ccccc3n(Cc3ccccc3)cc-2c1=O,783,,47%,,
O=c1c2cn(Cc3ccccc3)c3ccccc3c-2nn1Cc1ccccn1,> 10000,59,,,
Cc1ccc(Cn2nc3c4ccccc4n(Cc4ccncc4)cc-3c2=O)c(C)c1,1550,,82%,,
O=c1c2cn(Cc3ccc(-n4cccn4)cc3)c3ccccc3c-2nn1Cc1ccccc1,> 10000,50,,,
Cc1ccc(Cn2nc3c4ccccc4n(Cc4cccnc4)cc-3c2=O)c(C)c1,3660,,75%,,
COc1ccc(Cn2cc3c(=O)n(Cc4ccc(C)cc4C)nc-3c3ccccc32)c(F)c1,,,inactive,inactive,Not Active
O=c1[nH]nc2c3ccccc3n(Cc3ccc(-n4cccn4)cc3)cc1-2,1200,,83%,,
Cc1ccc(Cn2nc3c4ccccc4n(Cc4ccccc4C)cc-3c2=O)c(C)c1,,,inactive,inactive,Not Active
